From patent publication US8541400B2, “Compositions forming non-lamellar dispersions” (Camurus AB, priority 2004, dated 2013)

How the values were obtained:
[1] = Active agent loading into non-lamellar particle dispersion; type: physicochemical; settings: active agent relative to mass of total amphiphile, DGMO/GDO/Pluronic F127 54/36/10 dispersion; for % loading by equilibration: 37° C., three days; for % loading by heat treatment: autoclavation 125° C., 20 minutes
Method: A composition comprising DGMO (54% by weight), GDO (36% by weight) and Pluronic® F127 (10% by weight) was dispersed in 99 times its weight in water by the method of Example 2.1.
The dispersion was divided into samples and loaded with each of the active agents shown below by each of two techniques: • i) A saturated solution of active was equilibrated with the particles in dispersion at 37° C. for three days by gentle stirring on a rotating table. • ii) The samples were dispersed in a solution of excess active agent and heat treated by autoclavation at 125° C. for 20 minutes and were allowed to temperature equilibrate at 37° C. for at least one hour.
The following loadings were achieved, expressed as percentage active agent incorporated relative to the mass of total amphiphile.

[2] = Oral bioavailability of octreotide in rats (plasma OCT, competitive immunoassay); type: in vivo; settings: rat, 0.2 mg/kg, read-out: Absolute bioavailability (F)
Method: On the first day of the experiment, the rats were prepared by inserting a silicon catheter (OD approx. 1 mm) in the jugular vein under isoflurane anaesthesia. The catheter was tunnelled under the skin and exteriorised between the scapulae. After surgery the rats were allowed 48 hours of recovery before dosing. The catheter was rinsed with 0.9% NaCl containing 1 mM EDTA, every morning during the recovery period.
In the morning, after approximately 16 hours of fasting (water was accessible), the animals were dosed and blood collected. The animals were allowed free access to water after dosing, but had no access to food. After the last sampling, all animals were sacrificed.
The rats were dosed intravenously through the venous catheter or by gavage by a plastic ball-tipped gavage tube. […]
The content of OCT in all plasma samples was measured by a competitive immunoassay. […] The fraction of antibody remaining in solution is removed, and the fraction bound to the immobilized peptide is quantified, the signal obtained being inversely proportional to the concentration of OCT in the sample. […]
Dose-corrected absolute bioavailability of OCT in the oral non-lamellar formulation was calculated as: Availability (F)=(AUCoral×DoseIV)/(AUCIV×Doseoral)×100 20.6—Results

SMILES	% loading by equilibration [1] [%]	% loading by heat treatment [1] [%]	bioavailability [2] [%]
C[C@]12CC[C@@H]3c4ccc(O)cc4C[C@@H](CCCCCCCCC[S+]([O-])CCCC(F)(F)C(F)(F)F)[C@H]3[C@@H]1CC[C@@H]2O (stereo partly shown) [Fulvestrant]	0.6	3.76	–
CC(=O)N1CCN(c2ccc(OCC3COC(Cn4ccnc4)(c4ccc(Cl)cc4Cl)O3)cc2)CC1 (stereo not shown) [Ketoconazole]	3.49	19.25	–
C[C@@H](O)[C@@H]1NC(=O)[C@H](CCCCN)NC(=O)[C@@H](Cc2c[nH]c3ccccc23)NC(=O)[C@H](Cc2ccccc2)NC(=O)[C@@H](NC(=O)[C@H](N)Cc2ccccc2)CSSC[C@@H](C(=O)N[C@H](CO)[C@@H](C)O)NC1=O [OCT in a saline solution, Octreotide]	–	–	~0.04
CC(=O)[C@H]1CC[C@H]2[C@@H]3CCC4=CC(=O)CC[C@]4(C)[C@H]3CC[C@]12C [Progesterone]	2.99	12.65	–
